Experimental data published in US11654138B2, “Therapeutic agents for treating and preventing autoimmune diseases and cancer and a screening method” (KING FAISAL UNIVERSITY, priority 2019, dated 2023).

What was measured:
CIA = experiment: Collagen-induced arthritis (CIA) model; type: in vivo, C57BL mice; conditions: for CIA clinical scores: 0.25 mg i.p. on days 0, 3, 6, 9, 12, 15, 18, vs corn oil, FIG. 7A; for Serum level of IL-6 / Frequency of CD4+IL-17+ cells in the secondary lymphoid organs: 0.25 mg i.p.; for Serum level of IL-6: day 45, FIG. 7B; for Frequency of CD4+IL-17+ cells in the secondary lymphoid organs: day 45, flow cytometry, FIG. 7C
IMQ-induced psoriasis = IMQ-induced psoriasis model; type: in vivo, male BALB/c mice; conditions: for Clinical scores (erythema and thickness of the right ear): topical ointment 40 mg/cm^2 day 0 to 8, vs Vaseline, FIG. 8A; for Il6 mRNA expression in whole biopsies of the right ear / Il17a mRNA expression in whole biopsies of the right ear: topical ointment, day 8, FIG. 8B
Description: Experimental psoriasis was induced following a modified method described previously (Sun et al. 2013). To induce disease in male BALB/c mice (6-8 weeks; n=6), imiquimod (IMG; Sichuan Med-Shine Pharmaceutical) at 5% was applied topically at 20 mg/cm^2 on the inside of the right ear for 8 consecutive days. An evaluation system for assessment of erythema and thickness of the ear was developed. Erythema was assessed using a table with red […] (0-4) and ear thickness (0-4) measured using a digital caliber on days 2, 4, 6, and 8 after first IMQ application. The sum of the two parameters scores (ranging from 0-8) was used to indicate the overall clinical score. Treatment ointment was prepared by mixing 1 mg of DMSO-dissolved POE or its representative analogs including POE A2 or POE A3 with 20 gm of Vaseline Petroleum Jelly Original (vehicle, Unilever Inc.); the mixture was then incubated at room temperature overnight. From day 0 to day 8 the mice were treated topically with the treatment ointment (40 mg/cm^2) or Vaseline (IMQ/control). The mRNAs encoding Il6 and Il17a were isolated from whole biopsies of the ear (day 8) and reverse transcribed to make cDNA. The cDNA was then amplified by real-time PCR using TaqMan Gene Expression Assays (Mm00446190_ml, Mm00439618_ml, respectively; Applied Biosystems). The relative expression of mRNAs was calculated by the ΔΔCt method and presented relative to that of IMQ control mice.

Compound | CIA clinical scores (CIA) | Serum level of IL-6 (CIA) | Frequency of CD4+IL-17+ cells in the secondary lymphoid organs (CIA) | Clinical scores (erythema and thickness of the right ear) (IMQ-induced psoriasis) | Il6 mRNA expression in whole biopsies of the right ear (IMQ-induced psoriasis) | Il17a mRNA expression in whole biopsies of the right ear (IMQ-induced psoriasis)
Cc1nnc(SCC(=O)c2ccccc2)o1 [POE A1] | comparably reduced CIA clinical scores | reduced serum levels of IL-6 | reduced the frequency of CD4^+IL-17^+ cells |  |  | 
Cc1nnc(NCC(=O)c2ccccc2)s1 [POE A2, 2-[(5-methyl-1,3,4-thiadiazol-2-yl)amino]-1-phenylethan-1-one] | comparably reduced CIA clinical scores | reduced serum levels of IL-6 | reduced the frequency of CD4^+IL-17^+ cells | comparably reduced clinical scores | suppressed mRNA expression | suppressed mRNA expression
CC(=O)CSc1nnc(-c2cccnc2)o1 [POE A3, 2-Propanone, 1-[[5-(3-pyridinyl)-1,3,4-oxadiazol-2-yl]thio]-] |  |  |  | comparably reduced clinical scores | suppressed mRNA expression | suppressed mRNA expression
